Tests used:
MTNR1A = molecular target: T1, MTNR1A (Homo sapiens, UniProt P48039); test: NanoBRET screen HiBiT-MTNR1A in HEK293; assay type: binding
T1 construct: purchased Promega (in-house HiBiT-GPCR construct library, NanoBRET)
Experimental: (§1) Each tracer candidate was screened across the entire library of HiBiT-GPCR constructs using NanoBRET as the detection modality. As depicted in Figure 4A, the specificity of interactions was evaluated through decrease in BRET due to competitive displacement of a bound tracer by excess parental compound. Each tracer was analyzed for binding to each HiBiT-GPCR fusion in the absence and in the presence of competing parental compound. Briefly, HEK293 cells were transfected with HiBiT-GPCR constructs diluted into promoterless DNA to reduce expression and maximize translocation to the cell surface. Each tracer candidate was then screened at concentrations of 1 μM and 0.1 μM across cells expressing these fusions. Cells were treated for 1.5 h with tracer either alone or in the presence of 20 μM competing parental compound (i.e., control). BRET was measured upon addition of purified LgBiT and subsequent complementation with HiBiT genetically fused to a GPCR. The specificity of interactions was assessed through a decrease in BRET signal due to competitive displacement of the bound tracer. To further gauge the robustness of these interactions, the fold response over the control (i.e., BRETtracer/BRETcontrol) was calculated. We chose a 1.5-fold response, which translates to ≥7-fold signal over noise as the minimal threshold required to score an interaction as positive.
(§2) HiBiT-GPCR DNA constructs were diluted in 10 mM Tris pH 8 to a final concentration of 0.01 μg/μL, arrayed in 96-well plates and stored at −20 °C. For transfection, HEK293 cells were suspended in Opti-MEM (without phenol red) supplemented with 2% fetal bovine serum (Seradigm) and 100 units/mL penicillin–streptomycin (Gibco) at a final concentration of 220,000 cells/mL and dispensed into white 96-well plates at 90 μL/well. Subsequent transfections and screens were carried using an Agilent Bravo Automated Liquid Handling Platform. First, the 96-well HiBiT DNA arrays were diluted 25-fold in Opti-MEM (without serum or phenol red) to a final concentration of 0.0004 μg/μL and 20 μL of the diluted DNAs were transferred into new 96-well plates. Next, promoterless carrier DNA (1 μg/μL) was diluted 25-fold (0.04 μg/μL) and then dispensed into the diluted arrays at 20 μL/well. Following brief mixing, Viafect transfection reagent (Promega) diluted 16-fold into Opti-MEM was dispensed into the plates at 40 μL/well. After mixing by pipetting, plates were incubated for 10 min on the pipetting station deck. The DNA-transfection reagent complexes were then added to plates containing cells. To facilitate the screen, 10 μL of DNA-transfection reagent complexes were added in duplicates to the top 4 and bottom 4 rows, resulting in two identical 48-well arrays per plate. Plates with transfected cells were incubated for 18–20 h at 37 °C/5% CO2. A screen of each tracer across the entire library using two different concentrations requires duplicate plates of transfected cells. Depending on the number of tracers being screened, transfections can be scaled up using the same ratios. The next day, for each tracer, four 20× screening solutions in tracer dilution buffer (Promega) were prepared: two duplicates at final concentration of 20 μM and two duplicates at a final concentration of 2 μM. […] The four resulting solutions were diluted 4-fold in Opti-MEM without serum or phenol red to generate 5× solutions (5 µM and 0.5 µM tracer +/− 100 μM competing compound). To screen the library, a BioTek MultiFlo FX liquid dispenser was used to dispense 22.5 µL of tracer solution to the top 4 rows and 22.5 µL tracer + competing compound solution to the 4 bottom rows. Plates were briefly mixed on an orbital shaker and incubated for 1.5 h at room temperature. […] Plates were briefly mixed on an orbital shaker and incubated for 15 min to allow complementation.

ADCYAP1R1 = molecular target: T2, ADCYAP1R1 (Homo sapiens, UniProt P41586); test: NanoBRET screen HiBiT-ADCYAP1R1 in HEK293; assay type: binding
T2 construct: purchased Promega (in-house HiBiT-GPCR construct library, NanoBRET)
T2 sequence (P41586 21-468): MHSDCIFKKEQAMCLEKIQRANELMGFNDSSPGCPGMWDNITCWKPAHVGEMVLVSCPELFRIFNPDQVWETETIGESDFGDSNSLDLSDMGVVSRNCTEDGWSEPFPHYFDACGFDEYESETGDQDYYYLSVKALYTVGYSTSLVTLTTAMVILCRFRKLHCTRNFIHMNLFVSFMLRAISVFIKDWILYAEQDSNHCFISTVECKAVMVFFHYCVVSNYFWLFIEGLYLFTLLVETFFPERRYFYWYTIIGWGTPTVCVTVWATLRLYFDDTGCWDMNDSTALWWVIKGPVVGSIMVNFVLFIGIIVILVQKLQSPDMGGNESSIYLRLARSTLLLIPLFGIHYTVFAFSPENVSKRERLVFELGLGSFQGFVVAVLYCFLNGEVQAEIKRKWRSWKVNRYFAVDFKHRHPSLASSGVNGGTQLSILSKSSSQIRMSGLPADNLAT
Experimental: as §1, §2

T1 sequence (P48039 whole entry): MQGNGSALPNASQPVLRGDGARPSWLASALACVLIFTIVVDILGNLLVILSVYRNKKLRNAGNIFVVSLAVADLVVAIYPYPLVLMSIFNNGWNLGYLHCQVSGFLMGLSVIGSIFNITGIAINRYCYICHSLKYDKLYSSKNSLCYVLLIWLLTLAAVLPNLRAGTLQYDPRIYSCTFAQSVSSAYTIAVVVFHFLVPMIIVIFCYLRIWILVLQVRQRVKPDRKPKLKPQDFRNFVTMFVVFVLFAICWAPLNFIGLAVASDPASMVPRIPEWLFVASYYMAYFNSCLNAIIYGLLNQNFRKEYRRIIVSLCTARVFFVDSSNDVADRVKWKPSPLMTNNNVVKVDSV

SMILES | NanoBRET Fold Response (MTNR1A; MTNR1A, tracer 0.1μM) | NanoBRET Fold Response (MTNR1A; MTNR1A, tracer 1μM) | NanoBRET Fold Response (ADCYAP1R1; ADCYAP1R1, tracer 0.1μM) | NanoBRET Fold Response (ADCYAP1R1; ADCYAP1R1, tracer 1μM) | also measured
O=C(CCc1ccc2n1[B-](F)(F)[N+]1=C(c3ccc[nH]3)C=CC1=C2)NCc1ccc(C(=O)NCCOCCC(=O)N[C@@H]2CC[C@@]3(O)[C@H]4Cc5ccc(O)c6c5[C@@]3(CCN4CC3CC3)[C@H]2O6)cc1 [Naltrexone-3-NB590] | 0.76 | 1.18 | 0.88 | 0.98 | 
CCCn1c(=O)c2[nH]c(-c3ccc(OCC(=O)NCCNC(=O)CCOCCNC(=O)c4ccc(CNC(=O)CCc5ccc6n5[B-](F)(F)[N+]5=C(c7ccc[nH]7)C=CC5=C6)cc4)cc3)nc2n(CCC)c1=O [XAC-3-NB590] | 1.02 | 1.01 | 0.98 | 0.97 | 
CC(C)N(CC[C@H](c1ccccc1)c1cc(CCNC(=O)c2ccc(CNC(=O)CCc3ccc4n3[B-](F)(F)[N+]3=C(c5ccc[nH]5)C=CC3=C4)cc2)ccc1O)C(C)C [Tolterodine-BZ-NB590] | 0.97 | 1.03 | 1.04 | 1.00 | 
COc1ccc2[nH]c(-c3ccc(CNC(=O)CCOCCOCCOCCOCCNC(=O)CCc4ccc5n4[B-](F)(F)[N+]4=C(c6ccc[nH]6)C=CC4=C5)cc3)c(CCNC(C)=O)c2n1 [AzomelatoninICO9-2-NB590] |  |  |  |  | NanoBRET Fold Response (MTNR1A; 0.1μM tracer): 1.06; NanoBRET Fold Response (MTNR1A; 1μM tracer): 1.42; NanoBRET Fold Response (ADCYAP1R1; 0.1μM tracer): 1.08; NanoBRET Fold Response (ADCYAP1R1; 1μM tracer): 0.91
CN1CCN(C2=Nc3cc(Cl)ccc3N(CC(=O)NCCOCCOCCOCCOCCNC(=O)CCc3ccc4n3[B-](F)(F)[N+]3=C(c5ccc[nH]5)C=CC3=C4)c3ccccc32)CC1 [Clozapine-c-2-NB590] |  |  |  |  | NanoBRET Fold Response (MTNR1A; MTNR1A, 0.1μM tracer): 0.97; NanoBRET Fold Response (MTNR1A; MTNR1A, 1μM tracer): 1.07; NanoBRET Fold Response (ADCYAP1R1; ADCYAP1R1, 0.1μM tracer): 0.97; NanoBRET Fold Response (ADCYAP1R1; ADCYAP1R1, 1μM tracer): 1.07
COc1ccccc1N1CCN(CCCCN2C(=O)c3ccc(CNC(=O)CCOCCNC(=O)c4ccc(CNC(=O)CCc5ccc6n5[B-](F)(F)[N+]5=C(c7ccc[nH]7)C=CC5=C6)cc4)cc3C2=O)CC1 [NAN-190-3-NB590] | 1.01 | 0.80 | 1.25 | 1.00 | 
Cc1nc2n(c(=O)c1CCN1CCC(c3noc4cc(F)ccc34)CC1)CCCC2OC(=O)NCCOCCOCCOCCOCCNC(=O)CCc1ccc2n1[B-](F)(F)[N+]1=C(c3ccc[nH]3)C=CC1=C2 (stereo not drawn) [Risperidone-2-NB590] | 0.97 | 0.93 | 0.99 | 1.02 | 
O=C(CCOCCOCCOCCOCCNC(=O)CCc1ccc2n1[B-](F)(F)[N+]1=C(c3ccc[nH]3)C=CC1=C2)NCCCN1CCN(C2=Nc3ccccc3Oc3ccc(Cl)cc32)CC1 [Loxapine-a-2-NB590] | 0.92 | 1.12 | 1.03 | 1.20 | 
COc1ccccc1N1CCN(CCCCN2C(=O)c3ccc(CNC(=O)CCOCCOCCOCCOCCNC(=O)CCc4ccc5n4[B-](F)(F)[N+]4=C(c6ccc[nH]6)C=CC4=C5)cc3C2=O)CC1 [NAN-190-2-NB590] | 0.99 | 0.97 | 1.08 | 1.04 | 
CC(C)N(CC[C@H](c1ccccc1)c1cc(CCNC(=O)CCOCCOCCOCCOCCNC(=O)CCc2ccc3n2[B-](F)(F)[N+]2=C(c4ccc[nH]4)C=CC2=C3)ccc1O)C(C)C [Tolterodine-2-NB590] | 1.07 | 0.79 | 0.68 | 0.93 | 
N#CN=C(NCCCOc1cccc(CN2CCCCC2)c1)NCCNC(=O)CCOCCOCCOCCOCCNC(=O)CCc1ccc2n1[B-](F)(F)[N+]1=C(c3ccc[nH]3)C=CC1=C2 [Aminopotentidine-2-NB590] | 1.00 | 1.00 | 1.00 | 1.01 | 
CCOC(=O)c1cc(C#N)c(N2CCC(C(=O)NS(=O)(=O)Cc3ccccc3/C=C/C(=O)NCCNC(=O)CCc3ccc4n3[B-](F)(F)[N+]3=C(c5ccc[nH]5)C=CC3=C4)CC2)nc1C [AZD1283-1-NB590] |  |  |  |  | NanoBRET Fold Response (MTNR1A; MTNR1A, 0.1μM): 1.00; NanoBRET Fold Response (MTNR1A; MTNR1A, 1μM): 1.00; NanoBRET Fold Response (ADCYAP1R1; ADCYAP1R1, 0.1μM): 0.93; NanoBRET Fold Response (ADCYAP1R1; ADCYAP1R1, 1μM): 0.96
CN(C)CCC=C1c2ccccc2CCc2ccc(C(=O)NCCNC(=O)CCOCCOCCOCCOCCNC(=O)CCc3ccc4n3[B-](F)(F)[N+]3=C(c5ccc[nH]5)C=CC3=C4)cc21 [Amitriptyline-b-2-NB590] | 0.96 | 0.98 | 0.99 | 0.99 | 
O=C(CCc1ccc2n1[B-](F)(F)[N+]1=C(c3ccc[nH]3)C=CC1=C2)NCCOCCOCCNC(=O)OCCOCCN1CCN(C2=Nc3ccccc3Sc3ccccc32)CC1 [Quetiapine-a-2-NB590] | 1.00 | 1.05 | 1.03 | 1.11 | 
Cc1cc2c(s1)Nc1ccccc1N=C2N1CCN(CCCNC(=O)CCOCCOCCOCCOCCNC(=O)CCc2ccc3n2[B-](F)(F)[N+]2=C(c4ccc[nH]4)C=CC2=C3)CC1 [Olanzapine-a-2-NB590] | 1.01 | 1.07 | 1.02 | 1.01 | 
CN1CCN(C2=Nc3cc(Cl)ccc3Nc3ccc(CNC(=O)CCOCCOCCOCCOCCNC(=O)CCc4ccc5n4[B-](F)(F)[N+]4=C(c6ccc[nH]6)C=CC4=C5)cc32)CC1 [Clozapine-b-2-NB590] |  |  |  |  | NanoBRET Fold Response (MTNR1A; MTNR1A, 1μM tracer): 1.02; NanoBRET Fold Response (ADCYAP1R1; ADCYAP1R1, 0.1μM tracer): 1.04; NanoBRET Fold Response (ADCYAP1R1; ADCYAP1R1, 1μM tracer): 1.09
COc1ccc2c(n1)c(CCNC(C)=O)cn2CCNC(=O)CCc1ccc2n1[B-](F)(F)[N+]1=C(c3ccc[nH]3)C=CC1=C2 [Azamelatonin-1-NB590] |  |  |  |  | NanoBRET Fold Response (MTNR1A; 0.1μM tracer): 1.12; NanoBRET Fold Response (MTNR1A; 1μM tracer): 1.55; NanoBRET Fold Response (ADCYAP1R1; 0.1μM tracer): 0.76; NanoBRET Fold Response (ADCYAP1R1; 1μM tracer): 0.54
O=C(CCc1ccc2n1[B-](F)(F)[N+]1=C(c3ccc[nH]3)C=CC1=C2)NCc1ccc(C(=O)NCCOCCOCCNCC(O)COc2cccc3ccccc23)cc1 (stereo not drawn) [Propranolol-3-NB590] |  |  |  |  | NanoBRET Fold Response (MTNR1A; MTNR1A, 0.1μM): 0.98; NanoBRET Fold Response (MTNR1A; MTNR1A, 1μM): 0.94; NanoBRET Fold Response (ADCYAP1R1; ADCYAP1R1, 0.1μM): 1.00; NanoBRET Fold Response (ADCYAP1R1; ADCYAP1R1, 1μM): 0.97
O=C(CCOCCOCCOCCOCCNC(=O)CCc1ccc2n1[B-](F)(F)[N+]1=C(c3ccc[nH]3)C=CC1=C2)NCCCN1CCN(C2=Nc3cc(Cl)ccc3Nc3ccccc32)CC1 [Clozapine-a-2-NB590] |  |  |  |  | NanoBRET Fold Response (MTNR1A; MTNR1A, 0.1μM tracer): 1.03; NanoBRET Fold Response (MTNR1A; MTNR1A, 1μM tracer): 1.00; NanoBRET Fold Response (ADCYAP1R1; ADCYAP1R1, 0.1μM tracer): 1.00; NanoBRET Fold Response (ADCYAP1R1; ADCYAP1R1, 1μM tracer): 1.06

From publication PMC8151276, “An Integrated Approach toward NanoBRET Tracers for Analysis of GPCR Ligand Engagement” (Molecules, 2021)
